The nature of data set [1]: Evaluation of compounds' pharmacokinetics in SD rats in vivo (intravenous injection and oral administration). The arrangement: species or system Sprague Dawley rats. The settings on record: single intravenous injection and oral administration; for AUC: read-out: Concentration integral AUC; for half-life: read-out: Half life T1/2 (converted); for bioavailability: oral, read-out: Bioavailability F. Here is the method: Objective: To test the pharmacokinetics of compounds in SD rats in vivo.
Sprague Dawley rats (male, 200-300 g, 7-9 weeks old, Shanghai Slack)
The pharmacokinetics profile of the compound in rodent after intravenous injection and oral administrations was tested using a standard protocol. In the assay, the candidate compound was formulated into a clear solution, and was given to the rats through a single intravenous injection and oral administration. The vehicles for the intravenous injection and oral administration were an aqueous hydroxypropyl β-cyclodextrin solution or dimethyl sulfoxide in aqueous PEG400 solution in a proper proportion. The whole blood samples were collected within 24 hours, centrifuged at 3000 g for 15 minutes, and plasma samples were obtained by separating the supernatant. 4 times volume of acetonitrile solution containing an internal standard was added to precipitate proteins. After centrifugation, the supernatant was collected, to which an equal volume of water was added, and further centrifuged to collect the supernatant. The LC-MS/MS method was used to quantitatively analyze the plasma concentration, and the pharmacokinetics parameters, such as peak concentration, peak time, clearance rate, half-life, area under the curve, and bioavailability were calculated.

For the next data set, the target named is T1, S1P1 receptor (Homo sapiens, UniProt P21453).
T1 construct: expressed in transfected cells
T1 sequence (P21453 whole entry): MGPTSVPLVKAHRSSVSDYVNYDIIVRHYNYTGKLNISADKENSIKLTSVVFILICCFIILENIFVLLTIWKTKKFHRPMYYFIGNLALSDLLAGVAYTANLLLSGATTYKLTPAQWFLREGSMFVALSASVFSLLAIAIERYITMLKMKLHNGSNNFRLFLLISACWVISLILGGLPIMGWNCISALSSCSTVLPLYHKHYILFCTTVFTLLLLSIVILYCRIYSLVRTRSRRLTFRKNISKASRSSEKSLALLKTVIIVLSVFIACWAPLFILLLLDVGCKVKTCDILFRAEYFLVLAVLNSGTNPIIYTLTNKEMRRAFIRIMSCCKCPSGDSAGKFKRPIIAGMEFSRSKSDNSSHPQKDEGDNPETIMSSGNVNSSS
The data set is described as follows: S1P1 receptor agonistic activity assay (PathHunter cell strain, chemiluminescent signal detection). The note with it: PathHunter cells, agonist mode, 37° C. for 90-180 minutes. The format is cell-based. Here is the method: 1. A PathHunter cell strain was thawed according to standard procedures;
2. The cell was seeded in 20 μl 384-well microplates and incubated at 37° C. for an appropriate time.
1. For an agonist assay, the cell was incubated with the sample to be tested to initiate a reaction;
2. The stock to be tested is diluted 5 folds to be a buffer solution;
3. The 5-fold diluted solution (5 μL) was added to the cells and incubated at 37° C. for 90-180 minutes. The solvent concentration was 1%.
1. 12.5 μL or 15 μL of PathHunter detection reagent (50 vol. %) was added in one portion and then incubated for 1 hour at room temperature to generate a detection signal;
2. The microplate was read using a PerkinElmer Envision™ instrument for chemiluminescent signal detection.
1. Compound activity analysis was performed using a CBIS Data Analysis Kit;
2. Calculation formula: % activity=100%×(average RLU of sample to be test-average RLU of solvents)/(average maximum control ligand−average RLU of solvents)

[2] abbreviates: male, Sprague-Dawley, rat, plasma, 2 mg/kg, 2 mpk.
[3] abbreviates: male, Sprague-Dawley, rat, plasma, 3 mg/kg, 3 mpk.
The mark [4] stands for this setting: male, Sprague-Dawley, rat, plasma, intravenous, 3 mg/kg, 3 mpk, read-out: Clearance.

Where two headings read alike, the source gives them in different places. Some results are limits rather than exact numbers.

As for `CC(C)Oc1ccc(-c2nc(-c3cccc4c3CCC43CCN(C4CC(C(=O)O)C4)C3)no2)cc1C#N` (single isomer, unassigned) [Example 47 Isomer 4], in data set [1] (3 mpk, 3 mg/kg), the “Bioavailability F” value was 89.6%, the “Concentration integral AUC” value worked out at 8.483 µM·h, the “Half life T1/2” value came to 3.22 h and the clearance was 11.6 mL/min/kg.

On to `CC(C)Oc1ccc(-c2nc(-c3cccc4c3CCC43CC(=O)N(CCO)C3)no2)cc1C(F)F` (centres unmarked) [Example 9], for which, on S1P1 receptor, the EC50 (in general, the concentration needed to bring the measured effect to its halfway point) is not above 0.01 µM. Also, in data set [1] (setting [2]), the AUC was found to be 4.35 µM·h; the half-life was 99.3 h; the bioavailability (in general, the share of a dose that reaches the circulation, judged against a reference dose that is usually intravenous) was determined as 89.4%. Also, the clearance in data set [1] (male, Sprague-Dawley, rat, plasma, intravenous, 2 mg/kg, 2 mpk, read-out: Clearance) came out at 2.52 mL/min/kg. For the molecule `CC(C)Oc1ccc(-c2nc(-c3cccc4c3CC[C@@H]4NCCO)no2)cc1C#N` [Ozanimod, reference compound], in data set [1] (setting [3]), the AUC amounted to 1.12 µM·h, the half-life was 5.24 h and the bioavailability was found to be 41.6%. In addition, the clearance in data set [1] (setting [4]) came to 46.3 mL/min/kg.

Regarding `CC(C)Oc1ccc(-c2nc(-c3cccc4c3CCC43CC(=O)N(CCO)C3)no2)cc1C#N` (single isomer, unassigned) [Example 21 isomer 2], in data set [1] (3 mpk, 3 mg/kg), the “Bioavailability F” value worked out at 89.6%, the “Concentration integral AUC” value stood at 8.483 µM·h, the “Half life T1/2” value is given as 3.22 h and the clearance was found to be 11.6 mL/min/kg. For the molecule `CC(C)Oc1ccc(-c2nc(-c3cccc4c3CCC43CCC(CO)N3)no2)cc1C#N` (centres unmarked) [Example 32], the EC50 at S1P1 receptor is 0.01 to 0.1 µM.

`CC(C)Oc1ccc(-c2nc(-c3cccc4c3CCC43CC(=O)N(CCO)C3)no2)cc1C#N` (single isomer, unassigned) [Example 21 isomer 1] had an EC50 on S1P1 receptor not above 0.01 µM. Also, in data set [1] (setting [3]), the AUC turned out to be 12.6 µM·h, the half-life was 3.02 h and the bioavailability amounted to 100%. Also, in data set [1] (setting [4]), the clearance was found to be 8.65 mL/min/kg. `CC(C)Oc1ccc(-c2nc(-c3cccc4c3CCC43CC(=O)N(CCO)C3)no2)cc1C#N` (centres unmarked) [Example 21 mixture] showed an EC50 at S1P1 receptor not above 0.01 µM. Consider `CC(C)Oc1ccc(-c2nc(-c3cccc4c3CCC43CCN(C4CC(C(=O)O)C4)C3)no2)cc1C#N` (single isomer, unassigned) [Example 47 Isomer 3], for which the “Bioavailability F” value in data set [1] (3 mpk, 3 mg/kg) stood at 48.7%. Besides, in data set [1] (setting [3]), the AUC was 5.66 µM·h and the half-life is 3.98 h. The clearance in data set [1] (setting [4]) worked out at 8.81 mL/min/kg. On S1P1 receptor, `CC(C)Oc1ccc(-c2nc(-c3cccc4c3CCC43CC(=O)N(CCO)C3)no2)cc1` (centres unmarked) [Example 13] had an EC50 of more than 0.1 µM. At S1P1 receptor, `CC(C)Oc1ccc(-c2nc(-c3cccc4c3CCC43CCN(CCO)C3=O)no2)cc1C#N` (centres unmarked) [Example 30] returned an EC50 of 0.01 to 0.1 µM. Regarding `CC(C)Oc1ccc(-c2nc(-c3cccc4c3CCC43CCC(=O)N3CCO)no2)cc1C#N` (centres unmarked) [Example 31], the EC50 at S1P1 receptor is 0.01 to 0.1 µM. Molecule `CC(C)Oc1ccc(-c2nc(-c3cccc4c3CCC43CCN(CC(=O)O)C3)no2)cc1C#N` (centres unmarked) [Example 48] had an EC50 on S1P1 receptor not above 0.01 µM.

Take `COc1ccccc1-c1nc(-c2cccc3c2CCC32CC(=O)N(CCO)C2)no1` (centres unmarked) [Example 6]: the EC50 at S1P1 receptor was more than 0.1 µM. As for `CC(C)Oc1ccc(-c2nc(-c3cccc4c3CCC43CCN(CCO)C3)no2)cc1C#N` (centres unmarked) [Example 35], the EC50 on S1P1 receptor was not above 0.01 µM.

In turn, `COCCN1CC2(CCc3c(-c4noc(-c5ccc(OC(C)C)c(C#N)c5)n4)cccc32)CC1=O` (centres unmarked) [Example 24] returned an EC50 at S1P1 receptor not above 0.01 µM. `CC(C)Oc1ccc(-c2ccc(-c3cccc4c3CCC43CC(=O)N(CCO)C3)s2)cc1C#N` (centres unmarked) [Example 43]: the EC50 at S1P1 receptor was 0.01 to 0.1 µM. At S1P1 receptor, `O=C1CC2(CCc3c(-c4noc(-c5ccc(OC(F)F)cc5)n4)cccc32)CN1CCO` (centres unmarked) [Example 15] displayed an EC50 of more than 0.1 µM. For `CC(C)Oc1ccc(-c2cnc(-c3cccc4c3CCC43CC(=O)N(CCO)C3)cn2)cc1C#N` (centres unmarked) [Example 45], the EC50 at S1P1 receptor was not above 0.01 µM.

Turning to `CC(C)Nc1ncc(-c2nc(-c3cccc4c3CCC43CC(=O)N(CCO)C3)no2)cc1Br` (centres unmarked) [Example 20], the EC50 on S1P1 receptor was in the range of 0.01 to 0.1 µM. Molecule `COc1cccc(-c2nc(-c3cccc4c3CCC43CC(=O)N(CCO)C3)no2)c1` (centres unmarked) [Example 5] displayed an EC50 on S1P1 receptor of more than 0.1 µM. `CC(C)Oc1ccc(-c2nc(-c3cccc4c3CCC43CC(=O)N(CCN(C)C)C3)no2)cc1C#N` (centres unmarked) [Example 27] came in with an EC50 on S1P1 receptor of 0.01 to 0.1 µM. At S1P1 receptor, `Cc1ccc(-c2nc(-c3cccc4c3CCC43CC(=O)N(CCO)C3)no2)cc1` (centres unmarked) [Example 16] returned an EC50 of more than 0.1 µM.

Turning to `CC(C)Oc1ccc(-c2nc(-c3cccc4c3CCC43CC(=O)N(CCO)C3=O)no2)cc1C#N` (centres unmarked) [Example 36], on S1P1 receptor, the EC50 was not above 0.01 µM. For `O=C1CC2(CCc3c(-c4noc(-c5cccc(Cl)c5)n4)cccc32)CN1CCO` (centres unmarked) [Example 2], at S1P1 receptor, the EC50 was more than 0.1 µM.

(Values after US10981900B2, “Spiro compound and use thereof” (MEDSHINE DISCOVERY INC., priority 2017, dated 2021).)
